Reference: the METLIN SMRT retention time set (Domingo-Almenara et al. 2019)

Experiment: gradient 5% acetonitrile 3 min, to 50% in 2 min, to 85% in 15 min, held 3 min, 100 µL/min
Conditions: column: Zorbax Extend-C18 2.1 x 50 mm; eluents: water / acetonitrile, 0.1% formic acid
Method in brief: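 Using water and acetonitrile that each contained 0.1% formic acid, mixtures of ~100 pure standards were separated at 100 μL/min on a Zorbax Extend-C18 column (2.1 × 50 mm, 1.8 μm). The HPLC fed a quadrupole time-of-flight mass spectrometer working in positive and negative ionization mode, with dead and dwell volumes of 40 μL and 900 μL. Data were acquired over 3 months. Retention time was read from computationally picked adduct peaks after manual inspection of each.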

Row | RP-LC retention time [s] | Compound
1 | 870 | CCc1cccc(NC(=O)C2CCCN(S(=O)(=O)c3cc(-c4noc(C)n4)cs3)C2)c1 (stereo unspecified)
2 | 777 | CC(C)NC(=O)Cc1nnc2cc(-c3nc(C4CC4)no3)ccn12
3 | 627 | Cc1cc(N2CCN(C(=O)c3cccc(C(F)(F)F)c3)CC2)nc2nncn12
4 | 786 | Cc1ccc(NC(=O)NCCn2c(C(F)(F)F)nc3cccnc32)cc1F
5 | 611 | Cc1ccc2c(Nc3cccc(Br)c3)c(C(=O)N3CCOCC3)cnc2n1
6 | 930 | Cc1ccc(C)c(CNC(=O)Cc2csc3nc(-c4ccc(C)c(C)c4)cn23)c1
7 | 565 | O=C(CSc1ncc(CO)n1CC(=O)NC1CC1)Nc1ccc(F)cc1F
8 | 1160 | O=C(Nc1ccccc1)N1CC(Oc2cccc(-c3nc(-c4ccccc4)no3)c2)C1
9 | 853 | Cc1ccc(CN2CCC(CNC(=O)c3c(C)oc4ncnc(N5CCOCC5)c34)C2)cc1 (stereo unspecified)
10 | 808 | Cc1ccc(NC(=O)Cn2nc3nc(N4CCCC(C)C4)ccn3c2=O)c(C)c1 (stereo unspecified)
11 | 858 | O=C1OC(C(=O)Nc2ccc(F)cc2)Cc2ccc(Cl)cc21 (stereo unspecified)
12 | 917 | Cc1cc(NC(=O)Cn2ccn3nc(-c4ccccc4)c(CO)c3c2=O)ccc1Br
13 | 563 | O=C(c1c(OCC2CC2)cc(=O)n2c1CCCCC2)N1CCN(c2ccccn2)CC1
14 | 888 | Cc1cccc(N(C)C(=O)Cn2c(=O)n(-c3ccc(F)cc3)c(=O)c3c2cc(C)n3C)c1
15 | 1180 | CC(=O)N1CCCSc2ccc(S(=O)(=O)N3CCN(c4cc(Cl)ccc4C)CC3)cc21
16 | 723 | O=C(CN1CCCc2nc(C3CC3)ncc2C1=O)NC1CCCCC1
17 | 700 | Cc1nc2nc(-c3ccccc3)nn2c(C)c1CC(=O)NC(C)C
18 | 848 | Cc1cc(C)n(CC(O)COc2ccc(C(=O)c3ccc(Cl)cc3)cc2)n1 (stereo unspecified)
19 | 970 | CN(C)c1cccc(C(=O)Nc2cc(-c3cccs3)no2)c1
20 | 1240 | O=S(=O)(c1ccc2nc(N3CCN(c4cccc(Cl)c4)CC3)ccc2c1)N1CCCCC1
21 | 581 | O=C(NCc1nc(-c2ccccc2)no1)C1CCN(Cc2nc3ccccc3[nH]2)CC1
22 | 694 | CC(C)n1c(CCNC(=O)c2cc(F)cc(F)c2)nc2cccnc21

Row | RP-LC retention time [s] | Compound
23 | 1030 | CCn1c(=O)c(N2CCN(C(=O)Nc3cccc(Br)c3)CC2)nc2ccccc21
24 | 792 | Cc1cccc(C2=NC3(CCN(C(=O)c4ccc5c(c4)OCO5)CC3)NC2=O)c1
25 | 699 | CC(NC(=O)C1CCN(Cc2cn(C)c3ccccc23)CC1)c1ccc(F)cc1 (stereo unspecified)
26 | 678 | Cc1cccc(C)c1NC(=O)Cn1cnc2nc(N3CCCC(C(=O)NC4CC4)C3)sc2c1=O (stereo unspecified)
27 | 797 | O=C(NCC1CN(c2ccc(F)cc2)C(=O)O1)c1cc(Cl)ccc1Cl (stereo unspecified)
28 | 1030 | Cc1sc(-c2cc(C(F)(F)F)[nH]n2)cc1S(=O)(=O)NC1CCCCC1
29 | 716 | CCn1cc(CN2CCC(C(=O)NCc3ccc(OC)cc3OC)CC2)c2cc(OC)ccc21
30 | 802 | Cc1[nH]c(C(=O)N2CCC(CC(=O)NCc3ccccc3)CC2)c(C)c1C(=O)OC(C)C
31 | 730 | CC(C)NC(=O)N(C)Cc1ccsc1
32 | 1020 | CCS(=O)(=O)c1nc2ccc(NS(=O)(=O)c3c(C)c(C)cc(C)c3C)cc2s1
33 | 967 | O=C(C1CCN(c2ncccc2-c2nc(-c3ccccc3)no2)CC1)N1CCN(c2ncccn2)CC1
34 | 690 | O=C(NCc1cccnc1-c1ccc(F)cc1)c1ccc(F)cc1F
35 | 733 | COC(=O)c1cnc2nc(C)ccc2c1NCc1cccc(Cl)c1
36 | 654 | O=C(CCc1c(-c2ccc(Cl)cc2)nc2ccccn12)NCc1ccc2c(c1)OCO2
37 | 928 | COc1cc(OC)c(-n2nnc(-c3nsc(Nc4ccc(OC)c(OC)c4)n3)c2C)cc1Cl
38 | 608 | CN(Cc1ccccc1)Cc1cc(=O)n2cc(Cl)ccc2n1
39 | 674 | O=C(O)C1CCN(c2nc3ccc(-c4cncnc4)nc3s2)CC1
40 | 754 | COc1ccc(CNC(=O)Cn2c(=O)c3cc(-c4ccco4)nn3c3ncccc32)cc1
41 | 1130 | O=C(Nc1ccc(Cl)cc1)N1CCc2nc(-c3ccc(Cl)cc3)ncc2C1
42 | 832 | CC(C)c1noc(C2CCCCN2Cc2nc(-c3cccnc3)no2)n1 (stereo unspecified)
43 | 618 | CCN(Cc1ccc(OC)cc1)Cc1cc(=O)n2cccc(C)c2n1
44 | 924 | O=C(Cc1csc(NC(=O)Nc2cccc(Cl)c2)n1)Nc1ccccc1

Row | RP-LC retention time [s] | Compound
45 | 610 | O=C(NCCCN1CCOCC1)c1cc(-c2ccccc2)nc2n[nH]c(-c3ccccc3)c12
46 | 916 | CC(C)C(=O)Nc1nc(-c2ccc(F)cc2)cs1
47 | 584 | Cc1cc(C)cc(C(=O)N2CCc3nc[nH]c3C2)c1
48 | 1070 | CCOC(=O)COC(=O)c1cn(-c2ccc(OCC)cc2)c(=O)c2ccccc12
49 | 957 | Cc1cccc(-c2noc(-c3sccc3NC(=O)c3ccc4nc[nH]c4c3)n2)c1
50 | 630 | COc1nn(C)cc1C(=O)Nc1cc(-c2cccs2)nn1CCO
51 | 853 | O=C(C1CC1)N1CCc2sc(S(=O)(=O)Nc3ccc(Cl)cc3)cc2C1
52 | 712 | Cn1nc(-c2ccsc2)nc1C1CN(S(=O)(=O)c2cccnc2)C1
53 | 671 | O=C(NCC(c1cccnc1)c1c[nH]c2ccccc12)Nc1cccc(F)c1 (stereo unspecified)
54 | 548 | CC(C)N1CCN(c2ccc3nnc(C4CCC4)n3n2)CC1
55 | 1210 | Cc1c(Cl)cccc1NC(=O)Cn1c(C)nc2c(sc3nc(-c4ccccc4)ccc32)c1=O
56 | 949 | O=C(Cc1csc2nc(-c3ccccc3)cn12)N1CCN(c2cccc(Cl)c2)CC1
57 | 1300 | CCC(C)(C)NS(=O)(=O)c1cc(-c2nc(C(C)(C)C)cs2)cs1
58 | 614 | CC(C)(C)NC(=O)N1CCCN(S(C)(=O)=O)CC1
59 | 703 | O=C(Cn1nc2n(c1=O)CCCC2)Nc1ccc(Br)cc1
60 | 695 | CC(C)N1C(=O)c2cccnc2Sc2cc(C(=O)NCC3CCCO3)ccc21 (stereo unspecified)
61 | 1140 | CCCN(Cc1cccs1)C(=O)c1cc2c(=O)n(CCC)c3ccccc3n2n1
62 | 664 | CCN(CC)CCCNC(=O)C(C)n1c(=O)c(C(F)(F)F)nc2ccccc21 (stereo unspecified)
63 | 943 | C=CCN1C(=O)C(C)(C)COc2cc(NC(=O)c3cccc(OC)c3OC)ccc21
64 | 776 | Cc1ccc(C(=O)N2CCC3(CC2)NC(=O)c2cc(F)ccc2N3C)cc1
65 | 920 | Cn1nc(-c2nc(C3CC3)no2)c2c1CCN(S(=O)(=O)c1cccc(F)c1)C2

Row | Compound | RP-LC retention time [s]
66 | O=C(CN1CC=C(c2cnn(-c3ccccc3)c2)CC1)N1CCN(c2ccccn2)CC1 | 567
